Test results: US8552016B2, “Anti-cancer cyclopenta(g)quinazoline compounds” (BTG International Limited, priority 2001, dated 2013)
Read-outs that look alike come from different tables or passages of the source.

Columns and labels:
[1] = tested on: KB cells; assay: Inhibition of growth of KB cells (constitutively overexpress α-FR); assay type: cell-based, human; conditions: for KB: fold increased IC50 in presence of folic acid: 1 μM FA
Description: (§1) CB300945, the (RS)-C2-CH2OH analogue of the known cyclopenta[g]-quinazoline, CB300638 was synthesised as in Example 1. In addition, the C2-NH2 was made as a comparative example. […] The human A431-FBP cell line was transfected with the α-FR and sensitivity compared with the A431 cell line. Human nasopharengeal KB cells constitutively overexpress this receptor (see Bagnoli et al. Oncogene, 19, 4754-4763, 2000).

[2] = tested on: A431 cells; assay: Inhibition of growth of A431 (neo-transfected, not expressing α-FR) cells; assay type: cell-based, human; conditions: for A431: fold increased IC50 in presence of folic acid: 1 μM FA
Description: as §1

[3] = tested on: A431-FBP cells; assay: Inhibition of growth of A431-FBP cells (A431 transfected with the α-FR); assay type: cell-based, human; conditions: for A431-FBP: fold increased IC50 in presence of folic acid: 1 μM FA; for activity in A431-FBP cells (in words): α-FR mediated uptake
Description: as §1

[4] = target: T1, α-FR of L1210-FBP cells (Mus musculus, UniProt P35846); assay: Binding to the α-FR relative to folic acid, L1210-FBP cells; conditions: >1 = binding greater than folic acid
T1 construct: endogenous in cells; host or cells: mouse L1210-FBP leukaemia cells

[5] = 20 nM LV, read-out: Inhibition of cell growth, IC50, A431
[6] = Homo sapiens, KB, read-out: Inhibition of cell growth, IC50, KB + 1 μM FA, 1 nM LV, + 1 μM folic acid
[7] = Homo sapiens, KB, read-out: Inhibition of cell growth, IC50, KB + 1 μM FA, 20 nM LV, + 1 μM folic acid
[8] = Homo sapiens, A-431, 1 nM LV, read-out: Inhibition of cell growth, IC50, A431
[9] = Homo sapiens, A-431, read-out: Inhibition of cell growth, IC50, A431 + 1 μM FA, 1 nM LV, + 1 μM folic acid
[10] = Homo sapiens, A-431, read-out: Inhibition of cell growth, IC50, A431 + 1 μM FA, 20 nM LV, + 1 μM folic acid
[11] = Homo sapiens, A-431, 1 nM LV, read-out: Inhibition of cell growth, IC50, A431-FBP
[12] = Homo sapiens, A-431, read-out: Inhibition of cell growth, IC50, A431-FBP + 1 μM FA, 1 nM LV, + 1 μM folic acid
[13] = Homo sapiens, A-431, read-out: Inhibition of cell growth, IC50, A431-FBP + 1 μM FA, 20 nM LV, + 1 μM folic acid
[14] = Homo sapiens, KB, 1 nM LV, read-out: Inhibition of cell growth, IC50, KB

T1 sequence (P35846 25-232): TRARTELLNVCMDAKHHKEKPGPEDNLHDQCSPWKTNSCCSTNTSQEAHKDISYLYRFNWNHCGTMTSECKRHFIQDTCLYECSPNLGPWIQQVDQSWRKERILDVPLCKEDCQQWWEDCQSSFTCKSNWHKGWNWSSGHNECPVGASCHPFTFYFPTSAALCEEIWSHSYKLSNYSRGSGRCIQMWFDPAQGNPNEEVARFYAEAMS

| Compound | A431: fold increased IC50 in presence of folic acid ([2]; 1 nM LV) | A431: fold increased IC50 in presence of folic acid ([2]; 20 nM LV) | A431-FBP: fold increased IC50 in presence of folic acid ([3]; 20 nM LV) | IC50 [1, 6] [µM] | IC50 [1, 7] [µM] | relative binding affinity (inverse relative affinity) for the α-FR [4] | IC50 [2, 8] [µM] | IC50 [2, 9] [µM] | IC50 [3, 11] [µM] | IC50 [3, 12] [µM] | IC50 [3, 13] [µM] | IC50 [1, 14] [µM] | KB: fold increased IC50 in presence of folic acid ([1]; 1 nM LV) | KB: fold increased IC50 in presence of folic acid ([1]; 20 nM LV) | IC50 [2, 5] [µM] | A431-FBP: fold increased sensitivity compared with A431 ([3]; 1 nM LV) | A431-FBP: fold increased IC50 in presence of folic acid ([3]; 1 nM LV) | A431-FBP: fold increased sensitivity compared with A431 ([3]; 20 nM LV) | IC50 [2, 10] [µM] | activity in A431-FBP cells (in words) [3] | further results |
| --- | --- | --- | --- | --- | --- | --- | --- | --- | --- | --- | --- | --- | --- | --- | --- | --- | --- | --- | --- | --- | --- |
| C#CCN(Cc1cc2c(O)nc(C)nc2cc1C)c1ccc(C(=O)N[C@@H](CCc2nnn[nH]2)C(=O)O)c(F)c1 [ZD9331] | (1) fold | (1) fold | (2) fold |  |  |  |  |  |  |  |  |  | (3) fold | (3) fold | 0.082 ± 0.042 | (7) fold | (3) fold | (4) fold |  |  | IC50 ([1]; 1 nM LV, read-out: Inhibition of cell growth, IC50, KB): 0.0021 ± 0.0013 µM; IC50 ([1]; 20 nM LV, read-out: Inhibition of cell growth, IC50, KB): 0.0036 ± 0.0021 µM; IC50 ([1]; read-out: Inhibition of cell growth, IC50, KB + 1 μM FA, 1 nM LV, + 1 μM folic acid): 0.00641 ± 0.0035 µM; IC50 ([1]; read-out: Inhibition of cell growth, IC50, KB + 1 μM FA, 20 nM LV, + 1 μM folic acid): 0.012 ± 0.005 µM; IC50 ([2]; 1 nM LV, read-out: Inhibition of cell growth, IC50, A431): 0.061 ± 0.014 µM; IC50 ([2]; read-out: Inhibition of cell growth, IC50, A431 + 1 μM FA, 1 nM LV, + 1 μM folic acid): 0.056 ± 0.025 µM; IC50 ([2]; read-out: Inhibition of cell growth, IC50, A431 + 1 μM FA, 20 nM LV, + 1 μM folic acid): 0.067 ± 0.029 µM; IC50 ([3]; 1 nM LV, read-out: Inhibition of cell growth, IC50, A431-FBP): 0.0088 ± 0.0052 µM; IC50 ([3]; 20 nM LV, read-out: Inhibition of cell growth, IC50, A431-FBP): 0.018 ± 0.0097 µM; IC50 ([3]; read-out: Inhibition of cell growth, IC50, A431-FBP + 1 μM FA, 1 nM LV, + 1 μM folic acid): 0.027 ± 0.0076 µM; IC50 ([3]; read-out: Inhibition of cell growth, IC50, A431-FBP + 1 μM FA, 20 nM LV, + 1 μM folic acid): 0.034 ± 0.0087 µM |
| C#CCN(c1ccc(C(=O)N[C@@H](CCC(=O)N[C@H](CCC(=O)O)C(=O)O)C(=O)O)cc1)C1CCc2cc3nc(CO)[nH]c(=O)c3cc21 (mixture of isomers) [CB300945 (RS), N—{N-{4-[N-((6RS)-2-Hydroxymethyl-4-oxo-3,4,7,8-tetrahydro-6H-cyclopenta[g]quinazolin-6-yl)-N-(prop-2-ynyl)amino]benzoyl}-L-γ-glutamyl}-D-glutamic acid] |  | (1) fold | (3100) fold | 7.6 ± 1.3 | 7.3 ± 2 | 0.71 | 7.2 ± 3.6 | 7.3 ± 3.3 | 0.0019 ± 0.0006 | 5.7 ± 1.3 | 6.5 ± 0.86 |  | (2200) fold | (2100) fold |  | (3800) fold | (3100) fold | (4700) fold | 9.3 ± 3.5 | highly potent |  |
| C#CCN(c1ccc(C(=O)N[C@@H](CCC(=O)N[C@H](CCC(=O)O)C(=O)O)C(=O)O)cc1)C1CCc2cc3nc(C)[nH]c(=O)c3cc21 (mixture of isomers) [CB300638 (RS)] | (1) fold | (1) fold | (130) fold | 0.61 ± 0.012 | 0.76 ± 0.17 | 0.57 | 1.2 ± 0.21 | 0.98 ± 0.23 | 0.0072 ± 0.001 | 0.61 ± 0.012 | 0.87 ± 0.29 | 0.0079 ± 0.001 | (76) fold | (140) fold |  | (170) fold | (85) fold | (220) fold |  | highly sensitive |  |

More lines, main results first:

| A431: fold increased IC50 in presence of folic acid ([2]; 1 nM LV) | A431: fold increased IC50 in presence of folic acid ([2]; 20 nM LV) | A431-FBP: fold increased IC50 in presence of folic acid ([3]; 20 nM LV) | IC50 [1, 6] [µM] | IC50 [1, 7] [µM] | relative binding affinity (inverse relative affinity) for the α-FR [4] | IC50 [2, 8] [µM] | IC50 [2, 9] [µM] | IC50 [3, 11] [µM] | IC50 [3, 12] [µM] | IC50 [3, 13] [µM] | IC50 [1, 14] [µM] | Compound | KB: fold increased IC50 in presence of folic acid ([1]; 1 nM LV) | KB: fold increased IC50 in presence of folic acid ([1]; 20 nM LV) | IC50 [2, 5] [µM] | A431-FBP: fold increased sensitivity compared with A431 ([3]; 1 nM LV) | A431-FBP: fold increased IC50 in presence of folic acid ([3]; 1 nM LV) | A431-FBP: fold increased sensitivity compared with A431 ([3]; 20 nM LV) | IC50 [2, 10] [µM] | activity in A431-FBP cells (in words) [3] | further results |
| --- | --- | --- | --- | --- | --- | --- | --- | --- | --- | --- | --- | --- | --- | --- | --- | --- | --- | --- | --- | --- | --- |
|  | (1) fold | (180) fold |  |  |  |  |  |  |  | 5.1 |  | C#CCN(c1ccc(C(=O)N[C@@H](CCC(=O)N(C)[C@@H](CCC(=O)O)C(=O)O)C(=O)O)cc1)C1CCc2cc3nc(CO)[nH]c(=O)c3cc21 (mixture of isomers) [CB300960 (R, S), N—{N-{4-[N-((6RS)-2-hydroxymethyl-4-oxo-3,4,7,8-tetrahydro-6H-cyclopenta[g]quinazolin-6-yl)-N-(prop-2-ynyl)amino]benzoyl}-L-γ-glutamyl}-N-methyl-L-glutamic acid] |  |  |  |  |  |  |  |  |  |
| (1) fold | (1) fold | (1) fold | 19 ± 1.5 | 19 ± 1.2 | 0.57 | 24 ± 3.6 | 24 ± 2.9 | 9.1 ± 0.83 | 12 ± 2.1 | 7.1 ± 1 | 19 | C#CCN(c1ccc(C(=O)N[C@@H](CCC(=O)N[C@H](CCC(=O)O)C(=O)O)C(=O)O)cc1)C1CCc2cc3nc(N)[nH]c(=O)c3cc21 (mixture of isomers) [CB300944 (RS)] | (1) fold | (1) fold | 27 | (3) fold | (1) fold | (3) fold | 22 | very little activity | IC50 ([1]; Homo sapiens, KB, 20 nM LV, read-out: Inhibition of cell growth, IC50, KB): 19 ± 0.58 µM; IC50 ([2]; Homo sapiens, A-431, 20 nM LV, read-out: Inhibition of cell growth, IC50, A431): 23 µM; IC50 ([3]; Homo sapiens, A-431, 20 nM LV, read-out: Inhibition of cell growth, IC50, A431-FBP): 8.3 ± 0.64 µM |
